Data set [1] concerns β2-microglobulin or chemokines. Put plainly: Adsorbing ability of immobilized compounds of various log P values. As to conditions: compound immobilized on carrier. Type of data set: binding. The source says: In discovering compounds effective for adsorbing substances related to malady in body fluid, in particular, for adsorbing β2-microglobulin or chemokines, compounds having various log P values have been examined in a state of being immobilized.

For data set [2] the following is noted: octanol-water system, found value; cited from earlier work.

As for `CCCCCCCCCCCCCCCCN` [hexadecylamine], in data set [1], the “adsorbing ability for β2-microglobulin or chemokines” value is listed as “further enhanced”.
As for `CCCCN` [n-butylamine], the log P (in general, a log measure of how a compound divides between an organic and an aqueous phase) in data set [2] is reported as 0.97.
As to `CCCCCCCCN` [n-octylamine], in data set [1], the “adsorbing ability for β2-microglobulin or chemokines” value is given as “enhanced to a great extent”.
As for `CCCCCCCCCCCCCCCCCCN` [octadecylamine], the “adsorbing ability for β2-microglobulin or chemokines (guessed)” value in data set [1] (guessed and not tested) is on record as “equivalent to or better than that of hexadecylamine”.

Source of the values: patent US6878269B2, “Device for body fluid purification and system for body fluid purification” (Kaneka Corporation, priority 1996, dated 2005).
